From PMC9595134, “Novel pituitary actions of GnRH in teleost: The link between reproduction and feeding regulation” (Frontiers in Endocrinology, 2022)

Tests used:
[1] = test system: grass carp pituitary cells; assay: Signal transduction: pathway inhibitors on GnRH-induced anorectic gene mRNA; assay type: cell-based, grass carp (Ctenopharyngodon idellus); conditions: U73122 10 μM, GF109203X 20 μM, 2-APB 100 μM, MDL12330A 20 μM, H89 20 μM, nifedipine 10 μM, calmidazolium 1 μM, KN62 5 μM; for blockade of GnRH2-induced POMCb, CART2, UTS1, NMBa, NMBb, and LEPR mRNA expression: cotreated with GnRH2, 24 h; for blockade of GnRH3-induced POMCb, CART2, UTS1, NMBa, NMBb, and LEPR mRNA expression: cotreated with GnRH3, 24 h
Description: (§1) The preparation of grass carp pituitary cells was performed as mentioned above. After drug treatment, the total RNA of these cells was isolated by TRIzol reagent and reverse transcribed into cDNA with Hifair™ III 1st Strand cDNA Synthesis Kit. The transcript levels of several anorectic peptides (POMCb, CART2, UTS1, NMBa, NMBb, and Lepr) and reproductive genes (GtHα, LHβ, FSHβ, INHBa, SgII, DRD2) were detected by using an ABI 7500 quantitative real-time PCR (qRT-PCR) system (Biosystems, USA) (information of primers for target genes is listed in Supplementary Table S3 ). In this process, a serial gradient dilution of plasmid DNA of these genes was used as a standard for data calibration. The conditions of qRT-PCR were set to 10 min, 95°C, for pre-degeneration; 15 s, 95°C, for degeneration; 30 s, 55°C–60°C, for annealing; 30 s, 72°C, for extending; and 20 s, 82°C, for signal detection with 40 cycles. Finally, the melt curve obtained through each test was used to verify and check the reliability and specificity of the corresponding qRT-PCR.
To explore the signal transduction for GnRH-induced target gene mRNA expression, the method mentioned above was performed.
(§2) Figure 10 Signal transduction for GnRH2- and GnRH3-induced POMCb, CART2, UTS1, NMBa, NMBb, and LEPR mRNA expression in grass carp pituitary cells. In this experiment, GnRH2 (A) or GnRH3 (B) combined with/without the PLC inhibitor U73122 (10 μM), PKC inhibitor GF109203X (20 μM), or IP3 receptor blocker 2-APB (100 μM) was used to incubate the grass carp pituitary cells for 24 (h) After drug treatment, the total RNA was extracted from the cells for real-time PCR of the respective genes. Data presented are expressed as mean ± SEM, and the different letters represent a significant difference at p < 0.05 between groups (ANOVA followed by a Dunnett test).
as §2, with “11” for “10”, “AC” for “PLC”, “MDL12330A (20 μM) or PKA” for “U73122 (10 μM), PKC”, “H89” for “GF109203X”, “(20” for “(20 μM), or IP3 receptor blocker 2-APB (100”
Figure 12 Signal transduction for GnRH2- and GnRH3-induced POMCb, CART2, UTS1, NMBa, NMBb, and LEPR mRNA expression in grass carp pituitary cells. […] Data presented are expressed as mean ± SEM, and the differences between groups were significant at p < 0.05 by labelling diverse letters (ANOVA followed by a Dunnett test).

[2] = test system: grass carp pituitary cells; assay: Signal transduction: pathway inhibitors on GnRH-regulated reproductive gene mRNA; assay type: cell-based, grass carp (Ctenopharyngodon idellus); conditions: U73122 10 μM, GF109203X 20 μM, 2-APB 100 μM, MDL12330A 20 μM, H89 20 μM, nifedipine 10 μM, calmidazolium 1 μM, KN62 5 μM; for blockade of GnRH2-induced GtHα, LHβ, FSHβ, INHBa, and SgII mRNA expression: cotreated with GnRH2, 24 h; for blockade of GnRH3-induced GtHα, LHβ, FSHβ, INHBa, and SgII mRNA expression: cotreated with GnRH3, 24 h
Description: as §1
as §2, with “In” for “Figure 10 Signal transduction for GnRH2- and GnRH3-induced POMCb, CART2, UTS1, NMBa, NMBb, and LEPR mRNA expression in grass carp pituitary cells. In”
In this experiment, GnRH2 (A) or GnRH3 (B) combined with/without the AC inhibitor MDL12330A (20 μM) or PKA inhibitor H89 (20 μM) was used to incubate the grass carp pituitary cells for 24 (h) After drug treatment, the total RNA was extracted from the cells for real-time PCR of the respective genes. Data presented are expressed as mean ± SEM, and the different letters represent a significant difference at p < 0.05 between groups (ANOVA followed by a Dunnett test).
Data presented are expressed as mean ± SEM, and the different letters represent a significant difference at p < 0.05 between groups (ANOVA followed by a Dunnett test).

DRD2 = conditions: teleost; ref [37]; cited from earlier work
grass carp pituitary = conditions: ref [15]; cited from earlier work
Text: As we know, energy metabolism was associated with reproductive behavior in vertebrates ([11]), and adequate energy reserve was essential for breeding ([12]).

Row | Compound | blockade of GnRH2-induced POMCb, CART2, UTS1, NMBa, NMBb, and LEPR mRNA expression [1] | blockade of GnRH3-induced POMCb, CART2, UTS1, NMBa, NMBb, and LEPR mRNA expression [1] | blockade of GnRH2-induced GtHα, LHβ, FSHβ, INHBa, and SgII mRNA expression [2] | blockade of GnRH3-induced GtHα, LHβ, FSHβ, INHBa, and SgII mRNA expression [2] | effect on LH synthesis via activation of DRD2 (DRD2) | effect on LH secretion and synthesis (grass carp pituitary)
1 | COC(=O)C1=C(C)NC(C)=C(C(=O)OC)C1c1ccccc1[N+](=O)[O-] [nifedipine] | could block | could block |  |  |  | 
2 | CN(C)CCCn1cc(C2=C(c3c[nH]c4ccccc34)C(=O)NC2=O)c2ccccc21 [GF109203X] | could block | could block | could block | could block |  | 
3 | NCCc1ccc(O)c(O)c1 [dopamine] |  |  |  |  | inhibited | 
4 | CN([C@@H](Cc1ccc(OS(=O)(=O)c2cccc3cnccc23)cc1)C(=O)N1CCN(c2ccccc2)CC1)S(=O)(=O)c1cccc2cnccc12 [KN62] | could block | could block | could also block | could also block |  | 
5 | Clc1ccc(C(c2ccc(Cl)cc2)n2cc[n+](CC(OCc3ccc(Cl)cc3Cl)c3ccc(Cl)cc3Cl)c2)cc1 (centres unmarked) [calmidazolium] | could block | could block | could also block | could also block |  | 
6 | COc1ccc2c(c1)CC[C@@H]1[C@@H]2CC[C@]2(C)[C@@H](NCCCCCCN3C(=O)C=CC3=O)CC[C@@H]12 [U73122] | could block | could block | could block | could block |  | 
7 | prolactin-releasing peptide [PRRP] |  |  |  |  |  | significantly induce
8 | NCCOB(c1ccccc1)c1ccccc1 [2-APB] | could block | could block | could block | could block |  | 
9 | Cl.c1ccc(C2CCCC2NC2=NCCCCCCCCCCC2)cc1 (centres unmarked) [MDL12330A] | could block | could block | could also be blocked | could also be blocked |  | 
10 | O=S(=O)(NCCNC/C=C/c1ccc(Br)cc1)c1cccc2cnccc12 [H89] | could block | could block | could also be blocked | could also be blocked |  | 
